Reference: patent publication US10940139B2, “Compounds that interact with the Ras superfamily for the treatment of cancers, inflammatory diseases, rasopathies, and fibrotic disease” (Shy Therapeutics LLC, priority 2017, dated 2021)
Like-named read-outs stand apart in the source and are kept apart here.

Experiments:
Assay in all cases: Ras GTP binding domain inhibition assay (labeled GTP)
[1] = target: KRas G12C/Q61H double mutant (Homo sapiens (Human), UniProt P01116, G12C/Q61H); details: 20 μM compound
How it was run: (§1)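 Labelled-GTP binding: plate-captured His-KRas protein was pre-exposed to compound for 3 h at room temperature (single 20 μM point or dilution series, 1% DMSO, Tris pH 7.5/MgCl2/DTT buffer). Cy3- or Cy5-GTP was then added for 45 min. Washed wells were read for retained fluorescence to give inhibition or IC50.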

[2] = target: KRas G12D/Q61H double mutant (Homo sapiens (Human), UniProt P01116, G12D/Q61H); details: for inhibition at 20 µM: 20 μM compound
How it was run: as §1

KRas Q61H mutant = KRas Q61H mutant (Homo sapiens (Human), UniProt P01116, Q61H); details: 20 μM compound
How it was run: as §1

[3] = read-out: % Inhibition at 20 μM KRas G12C Q61H
[4] = read-out: % Inhibition at 20 μM KRas G12D Q61H
[5] = read-out: % Inhibition at 20 μM KRas Q61H
[6] = KRas G12C/Q61H double mutant, read-out: % Inhibition at 20 μM of K-Ras mutant and wild-type protein, KRas G12C Q61H
[7] = KRas G12D/Q61H double mutant, read-out: % Inhibition at 20 μM of K-Ras mutant and wild-type protein, KRas G12D Q61H
[8] = KRas Q61H, read-out: % Inhibition at 20 μM of K-Ras mutant and wild-type protein, KRas Q61H

KRas G12D/Q61H double mutant, sequence (P01116-2 other isoform, or with tags, fused parts or gaps G12D/Q61H): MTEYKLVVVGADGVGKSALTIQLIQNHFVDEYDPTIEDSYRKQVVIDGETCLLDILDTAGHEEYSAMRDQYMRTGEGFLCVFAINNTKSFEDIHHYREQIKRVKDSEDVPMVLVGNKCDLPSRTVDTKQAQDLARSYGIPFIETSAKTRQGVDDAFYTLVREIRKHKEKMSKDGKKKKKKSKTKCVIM
KRas G12C/Q61H double mutant, sequence (P01116-2 other isoform, or with tags, fused parts or gaps G12C/Q61H): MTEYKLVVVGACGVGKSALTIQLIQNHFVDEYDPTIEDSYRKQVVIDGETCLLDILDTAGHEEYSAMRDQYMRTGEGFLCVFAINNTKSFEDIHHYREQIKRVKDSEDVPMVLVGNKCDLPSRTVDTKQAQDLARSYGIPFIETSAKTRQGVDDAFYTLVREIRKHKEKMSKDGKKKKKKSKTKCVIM
KRas Q61H mutant, sequence (P01116-2 other isoform, or with tags, fused parts or gaps Q61H): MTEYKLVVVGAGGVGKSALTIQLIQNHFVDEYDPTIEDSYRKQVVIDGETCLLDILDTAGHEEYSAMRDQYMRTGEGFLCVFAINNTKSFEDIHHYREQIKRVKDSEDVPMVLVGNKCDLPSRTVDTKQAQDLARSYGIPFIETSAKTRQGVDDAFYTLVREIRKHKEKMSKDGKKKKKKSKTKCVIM

| inhibition at 20 µM [1, 3] [%] | inhibition at 20 µM [2, 4] [%] | inhibition at 20 µM (KRas Q61H mutant; [5]) [%] | inhibition at 20 µM [1, 6] [%] | inhibition at 20 µM [2, 7] [%] | inhibition at 20 µM (KRas Q61H mutant; [8]) [%] | SMILES | IC50 ([2]; serial dilution, read-out: KRas G12D Q61H (classes E-H, IC50)) [µM] |
| --- | --- | --- | --- | --- | --- | --- | --- |
| 25 to 50 | 25 to 50 | 25 to 50 | – | – | – | Oc1nc(-c2ccccn2)nc2c(-c3ccc(OC4CCCCC4)cc3)csc12 [drawing 2887] | – |
| 1 to 25 | 25 to 50 | 25 to 50 | – | – | – | O=C(NCCc1cnc(O)nc1)c1csc2nc(-c3ccccn3)nc(N3CCS(=O)(=O)CC3)c12 [drawing 2854] | – |
| 51 to 75 | 51 to 75 | 76 to 100 | – | – | – | O=C(c1cc2nc(-c3ccccn3)nc(O)c2s1)N1CCOC(c2ccccc2)C1 (stereo not shown) [drawing 2842] | – |
| 25 to 50 | 1 to 25 | 51 to 75 | – | – | – | O=C(c1csc2c(O)nc(-c3ccccn3)nc12)N1CCOC(CN2CCOCC2)C1 (stereo not shown) [drawing 2805] | – |
| 51 to 75 | 51 to 75 | 51 to 75 | – | – | – | Cc1ccc(OC2CCCC2)c(-c2csc3c(O)nc(-c4ccccn4)nc23)c1 [drawing 2844] | – |
| 51 to 75 | 1 to 25 | 51 to 75 | – | – | – | Cn1cc(C2CN(C(=O)c3csc4c(O)nc(-c5ccccn5)nc34)CCN2)cn1 (stereo not shown) [drawing 2777] | – |
| – | – | – | 1 to 25 | 1 to 25 | 1 to 25 | Oc1nc(-c2ccccn2)nc2cc(-c3ccc(-c4ccccc4)cc3)sc12 [drawing 3559] | – |
| 25 to 50 | 1 to 25 | 51 to 75 | – | – | – | O=C(c1csc2c(O)nc(-c3ccccn3)nc12)N1CCOC(c2cccc(Cl)c2)C1 (stereo not shown) [drawing 2770] | – |
| – | – | – | 1 to 25 | 1 to 25 | 0 | Nc1nc(O)c2sc(-c3cccc(C(=O)NC4CCNC4=O)c3)cc2n1 (stereo not shown) [drawing 3542] | – |
| 1 to 25 | 25 to 50 | 25 to 50 | – | – | – | Nc1nc(-c2ccccn2)nc2c(Br)csc12 [drawing 2892] | – |
| 1 to 25 | 1 to 25 | 25 to 50 | – | – | – | COc1ccncc1CCNC(=O)c1csc2nc(-c3ccccn3)nc(N3CCOCC3)c12 [drawing 2780] | – |
| 25 to 50 | 25 to 50 | 1 to 25 | – | – | – | Cc1sc2c(N)nc(-c3ccccn3)nc2c1Br [drawing 2893] | – |
| – | – | – | 51 to 75 | 51 to 75 | 76 to 100 | Cc1c(-c2csc3c(O)nc(-c4ccccn4)nc23)cnn1C [drawing 3505] | – |
| 51 to 75 | 1 to 25 | 51 to 75 | – | – | – | Cc1cnc(-c2ccccn2)nc1NC(=O)C(C)c1ccc(C#N)cc1 (stereo not shown) [drawing 2797] | – |
| 1 to 25 | 25 to 50 | 1 to 25 | – | – | – | COc1cc(C)c(-c2csc3c(O)nc(-c4ccccn4)nc23)cc1C [drawing 2869] | – |
| 76 to 100 | 1 to 25 | 76 to 100 | – | – | – | COc1ccc(C2CN(C(=O)c3csc4c(O)nc(-c5ccccn5)nc34)CCN2)cc1 (stereo not shown) [drawing 2774] | – |
| 51 to 75 | 1 to 25 | 51 to 75 | – | – | – | COc1cccc(N2CCN(C(=O)c3csc4c(O)nc(-c5ccccn5)nc34)CC2)c1 [drawing 2713] | – |
| 1 to 25 | 1 to 25 | 25 to 50 | – | – | – | COCCN(CCOC)c1nc(-c2ccccn2)nc2scc(C(=O)NCCc3ccc(OC)nc3)c12 [drawing 2792] | – |
| 51 to 75 | 25 to 50 | 51 to 75 | – | – | – | O=C(NCCc1cccnc1)c1cc2nc(-c3ccccn3)nc(O)c2s1 [drawing 2843] | – |

| SMILES | inhibition at 20 µM [1, 3] [%] | inhibition at 20 µM [2, 4] [%] | inhibition at 20 µM (KRas Q61H mutant; [5]) [%] | inhibition at 20 µM [1, 6] [%] | inhibition at 20 µM [2, 7] [%] | inhibition at 20 µM (KRas Q61H mutant; [8]) [%] | IC50 ([2]; serial dilution, read-out: KRas G12D Q61H (classes E-H, IC50)) [µM] |
| --- | --- | --- | --- | --- | --- | --- | --- |
| Cc1ccccc1C1CN(C(=O)c2csc3c(O)nc(-c4ccccn4)nc23)CCN1 (stereo not shown) [drawing 2775] | 51 to 75 | 25 to 50 | 76 to 100 | – | – | – | – |
| CC(c1ccccc1)N1CCN(C(=O)c2csc3c(O)nc(-c4ccccn4)nc23)CC1 (stereo not shown) [drawing 2804] | 51 to 75 | 51 to 75 | 76 to 100 | – | – | – | 11 to 30 |
